Data on 18 compounds can be found in ChEMBL document CHEMBL3045776, “[1,2,4]Triazolo[4,3-a]quinoxaline: synthesis, antiviral, and antimicrobial activities” (Med Chem Res, 2012).

Values after ≈ are worked out from the molar mass of the structure shown. Some results are limits rather than exact numbers.

Data set [1] is described as follows: Cytotoxicity against Chlorocebus aethiops (African green monkey) Vero cells. The format is cell-based. Particulars: chlorocebus sabaeus, read-out: CD50 (the source's name).
Data set [2] relates to Human alphaherpesvirus 1. The data set is described as follows: Antiviral activity against Human herpesvirus 1 infected African green monkey Vero cells assessed as reduction of virus induced plaque formation after 66 hr. It is filed as functional. Particulars: Human alphaherpesvirus 1, 66 h.
In data set [3] the test system is Human alphaherpesvirus 1. The data set is described as follows: Antiviral activity against Human herpesvirus 1 infected African green monkey Vero cells assessed as reduction of virus induced plaque formation at […] after 66 hr. The arrangement: scale not given: the % may be the effect or the level left. It is filed as functional.
For data set [4], the system named is Candida albicans. Put plainly: Antifungal activity against Candida albicans at 500 ug/disk after 72 hr by disk diffusion method. It is filed as functional. The conditions noted are these: read-out: IZ. A general note: In agar diffusion tests the substance spreads into inoculated agar from a disc or well.
For data set [5], the system named is Escherichia coli. Put plainly: Antibacterial activity against Escherichia coli at 500 ug/disk after 24 hr by disk diffusion method. The format is functional. The conditions noted are these: read-out: IZ.
In data set [6] the test system is Staphylococcus aureus. The data set is described as follows: Antibacterial activity against Staphylococcus aureus at 500 ug/disk after 24 hr by disk diffusion method. The format is functional. Particulars: read-out: IZ.
Data set [7] concerns Staphylococcus aureus. The data set is described as follows: Antibacterial activity against Staphylococcus aureus after 24 hr by agar dilution method. The format is functional. (In agar dilution the substance is mixed into plates at graded concentrations.)
The test system of data set [8] is Escherichia coli. Put plainly: Antibacterial activity against Escherichia coli after 24 hr by agar dilution method. The format is functional.
The subject of data set [9] is Bacillus subtilis. Put plainly: Antibacterial activity against Bacillus subtilis at 500 ug/disk after 24 hr by disk diffusion method. The format is functional. Particulars: read-out: IZ.
Data set [10] relates to Candida albicans. Put plainly: Antifungal activity against Candida albicans after 48 hr by agar dilution method. It is filed as functional.
Data set [11] has as its system Bacillus subtilis. Put plainly: Antibacterial activity against Bacillus subtilis after 24 hr by agar dilution method. The format is functional.
Data set [12] deals with Escherichia coli. Put plainly: Antibacterial activity against Escherichia coli at 50 ug/ml after 24 hr by disk diffusion method. The conditions noted are these: read-out: IZ.
Data set [13] deals with Bacillus subtilis. Put plainly: Antibacterial activity against Bacillus subtilis at 50 ug/ml after 24 hr by disk diffusion method. Particulars: read-out: IZ.
The test system of data set [14] is Staphylococcus aureus. The data set is described as follows: Antibacterial activity against Staphylococcus aureus at 50 ug/ml after 24 hr by disk diffusion method. Particulars: read-out: IZ.
Data set [15] deals with Candida albicans. Put plainly: Antifungal activity against Candida albicans at 1000 ug/ml after 72 hr by disk diffusion method. It is filed as functional. The conditions noted are these: read-out: IZ.

Regarding `CC(=O)Nc1nnc2c(N3CCN(c4ccccc4C)CC3)nc3ccc(C)cc3n12`, in data set [1], the CC50 is greater than 200 µg/mL.

As for `Cc1ccc2nc(N3CCN(c4ccccc4C)CC3)c3nnc(NC(=O)c4ccccc4)n3c2c1`, the CC50 in data set [1] came out at 160 µg/mL (≈ 335 µM). In addition, the MIC in data set [2] amounted to 80 µg/mL (≈ 168 µM). In addition, the Activity in data set [3] is given as less than 25%.

With `Cc1ccc2nc(N3CCCCC3)c3nnc(NC(=O)c4ccccc4)n3c2c1`, the results for the zone of inhibition at 500 µg/disc in [4], in data set [5] and in [6] were 10 mm, 10 mm and 20 mm, respectively. The CC50 in data set [1] turned out to be 160 µg/mL (≈ 414 µM). The MIC in data set [2] was determined as 80 µg/mL (≈ 207 µM); in data set [7] it was 84 µg/mL (≈ 217 µM). Further, the Activity in data set [3] is less than 25%.

As for `CC(=O)c1ccc(Nc2nc3ccc(C)cc3n3c(NC(=O)c4ccccc4)nnc23)cc1`, the zone of inhibition at 500 µg/disc in data set [5] turned out to be 15 mm; in [6] it was 15 mm; in data set [9], 10 mm. Besides, the MIC in [8] is 67 µg/mL (≈ 154 µM); in data set [7] it was 94 µg/mL (≈ 215 µM).

With `Cc1ccc2nc(Sc3nnc(-c4ccccc4O)o3)c3nnc(N)n3c2c1`, the CC50 in data set [1] came to 160 µg/mL (≈ 409 µM). In data set [2], the MIC is 80 µg/mL (≈ 204 µM). For the same compound, in data set [3], the Activity was less than 25%.

Take `Cc1ccc2nc(Sc3nnc(-c4cccnc4)o3)c3nnc(N)n3c2c1`: in [5], the zone of inhibition at 500 µg/disc is 10 mm. Further, the CC50 in data set [1] stood at 160 µg/mL (≈ 425 µM). Besides, the MIC in [2] was 80 µg/mL (≈ 213 µM). Besides, the Activity in data set [3] is less than 25%.

With `Cc1ccc2nc(Sc3nnc(-c4cccs4)n3-c3ccccc3)c3nnc(N)n3c2c1`, the zone of inhibition at 500 µg/disc was found to be 20 mm in data set [4], 20 mm in [5], 15 mm in data set [6] and 15 mm in data set [9]. In addition, the CC50 in [1] was 160 µg/mL (≈ 350 µM). Further, the MIC in data set [2] was determined as 80 µg/mL (≈ 175 µM); in data set [8], 98 µg/mL (≈ 215 µM); in data set [7] it was 124 µg/mL (≈ 272 µM); in data set [10] it was 78 µg/mL (≈ 171 µM); in data set [11] it was 91 µg/mL (≈ 199 µM). Besides, the Activity in data set [3] was less than 25%.

Consider `COc1ccc(/C=N/c2n[nH]c(Sc3nc4ccc(C)cc4n4c(N)nnc34)n2)cc1OC`, for which the zone of inhibition at 500 µg/disc turned out to be 20 mm in data set [4], 15 mm in data set [5], 10 mm in data set [6] and 10 mm in data set [9]. Also, the values for the MIC in data set [8] and in data set [10] were 102 µg/mL (≈ 221 µM) and 112 µg/mL (≈ 243 µM), respectively.

Consider `CCNC(=S)Nc1nnc2c(Cl)nc3ccc(C)cc3n12`, for which the zone of inhibition at 500 µg/disc in data set [4] is 20 mm; in [5], 15 mm; in data set [6], 15 mm; in data set [9], 10 mm. In addition, in data set [1], the CC50 was determined as 160 µg/mL (≈ 499 µM). Also, the MIC in [2] worked out at 80 µg/mL (≈ 249 µM); in data set [8], 87 µg/mL (≈ 271 µM); in [7], 115 µg/mL (≈ 358 µM); in data set [10], 89 µg/mL (≈ 277 µM). For the same compound, in data set [3], the Activity is given as less than 25%.

Regarding `Cc1ccc2nc(Cl)c3nnc(NC(=S)Nc4ccccc4)n3c2c1`, in data set [1], the CC50 was 200 µg/mL (≈ 542 µM). Moreover, in data set [2], the MIC came to 20 µg/mL (≈ 54.2 µM). Further, the Activity in [3] amounted to 25%.

For `Cc1ccc2nc(Cl)c3nnc(/N=C/c4ccc(O)cc4)n3c2c1`, in [1], the CC50 is 160 µg/mL (≈ 474 µM). In data set [2], the MIC is 80 µg/mL (≈ 237 µM). Also, the Activity in [3] was less than 25%.

Take `COc1ccc(/C=N/c2nnc3c(Cl)nc4ccc(C)cc4n23)cc1OC`: in data set [1], the CC50 stood at 160 µg/mL (≈ 419 µM). Besides, the MIC in [2] amounted to 80 µg/mL (≈ 210 µM). Also, the Activity in data set [3] was less than 25%.

On to `COC(=O)c1cc(=O)n2nc3c(Cl)nc4ccc(C)cc4n3c2n1`, for which the CC50 in data set [1] worked out at 160 µg/mL (≈ 465 µM). Also, the MIC in data set [2] came out at 80 µg/mL (≈ 233 µM). In data set [3], the Activity is given as less than 25%.

For the compound `CCOC(=O)c1cnc2n(nc3c(Cl)nc4ccc(C)cc4n32)c1=O`, the zone of inhibition at 500 µg/disc in data set [6] was 10 mm.

Regarding `Cc1ccc2nc(N3CCN(c4ccccc4C)CC3)c3nnc(N)n3c2c1`, the zone of inhibition at 500 µg/disc in data set [4], in data set [5] and in data set [9] was 10 mm each time. In data set [8], this compound had an MIC of 85 µg/mL (≈ 228 µM).

In the case of `C[C@@]1(CO)[C@H](O)CC[C@@]2(C)[C@H]1CC[C@H]1C[C@@H]3C[C@@]12CC[C@]3(O)CO` [APHIDICOLIN], the CC50 in [1] was determined as 20 µg/mL (≈ 59.1 µM). In addition, the MIC in data set [2] came out at 5 µg/mL (≈ 14.8 µM). Also, the Activity in data set [3] turned out to be 100%.

`O=C(O)c1cn(C2CC2)c2cc(N3CCNCC3)c(F)cc2c1=O` [CIPROFLOXACIN]: the zone of inhibition at 50 µg/mL is greater than 20 mm in data set [12], 15 mm in [13] and greater than 20 mm in [14]. The figures for the MIC in data set [8], in data set [7] and in data set [11] were 57 µg/mL (≈ 172 µM), 76 µg/mL (≈ 229 µM) and 62 µg/mL (≈ 187 µM), respectively.

On to `Clc1ccccc1C(c1ccccc1)(c1ccccc1)n1ccnc1` [CLOTRIMAZOLE], for which the zone of inhibition at 1000 µg/mL in data set [15] was greater than 20 mm. The MIC in data set [10] was 48 µg/mL (≈ 139 µM).
